In article PMC9881724, “Rational design of potent ultrashort antimicrobial peptides with programmable assembly into nanostructured hydrogels” (Frontiers in Chemistry, 2023):
≈ marks a conversion by molar mass, not a printed value. Like-named read-outs stand apart in the source and are kept apart here. Residues, ends and D or L forms follow the SMILES beside them. No end group written: not given here. *: point of attachment. Fmoc = O=C(OCC1c2ccccc2-c2ccccc21)*

What was measured:
E. faecium = type: cell-based
Description: (§1) Minimal inhibitory concentration (MIC) assays were performed following a standard broth dilution procedure ([Wiegand et al., 2008]) in which bacteria were grown in MHB and fungal in SB overnight. The overnight bacterial suspension was adjusted to 10^6 CFU/ml in broth according to MacFarlane standard. Bacterial solutions were mixed in 96-well plates with the peptide solution to reach final concentrations of peptides ranging from 1,082 to 2 μM, including inhibition control (Indolicidin), growth control, and sterility control. Within each MIC experiment, each peptide was tested in triplicate across this concentration range and repeated on 3 independent days. Media and glassware were sterilized at 120°C for 1 h with an autoclave prior to all bioassays.

E. coli NCTC 10418 = type: cell-based
Description: (§2) Indolicidin (sequence: ILPWKWPWWPWRR-NH2, molecular weight: 1,906.3 g/mol) and FMOC-WWRR-NH2 (molecular weight: 924.1) were obtained from ChemPep (USA) as lyophilized powder and acetate salts with a purity >95%. Ethanol and Congo red were purchased from Sigma-Aldrich (Australia). Sodium chloride was purchased from Alfa Aesar (United Kingdom). The negative staining agent phosphotungstic acid was purchased from Proscitech (Australia). A Milipore filter system was utilized to obtain Milli-Q water. BD Difco Mueller Hinton Broth (MHB) and Sabouraud broth (SB) were purchased from Cell biosciences (Australia). Strains: E. coli NCTC 10418, P. aeruginosa ATCC 9721, E. faecalis ATCC 19433, S. aureus ATCC 25923, S. aureus ATCC BAA-1756 (methicillin resistant), Streptococcus pneumoniae ATCC 49619, Candida albicans ATCC 10231 and Candida auris DSM 21092 (Fluconazole resistant) were provided by the RMIT microbial culture collection. Bacterial strains were stored in 50% glycerol at −20 and −80°C.
as §1

[1] = test system: Candida albicans ATCC 10231; type: cell-based
Description: as §2, §1

[2] = test system: Candida auris DSM 21092 (Fluconazole resistant); type: cell-based
Description: as §2, §1

P. aeruginosa ATCC 9721 = type: cell-based
Description: as §2, §1

[3] = test system: S. aureus ATCC BAA-1756 (methicillin resistant); type: cell-based
Description: as §2, §1

E. faecalis ATCC 19433 = type: cell-based
Description: as §2, §1

[4] = test system: Streptococcus pneumoniae ATCC 49619; type: cell-based
Description: as §2, §1

[5] = type: physicochemical
Description: The peptides were prepared by mixing the lyophilized peptide directly with type 1 water, vortexed for a few seconds to obtain an isotropic solution and stored at 4°C–5°C in between experiments.

S. aureus ATCC 25923 = type: cell-based; conditions: ATCC 25923, 1 h
Description: as §2, §1

[6] = broth dilution in MHB, 10^6 CFU/ml, peptide 1,082 to 2 μM, triplicate on 3 independent days
[7] = broth dilution in Sabouraud broth, peptide 1,082 to 2 μM, triplicate on 3 independent days

Molecule | MIC E. faecium (E. faecium; [6]) | MIC E. coli (E. coli NCTC 10418; [6]) | MIC C. albicans [1, 7] | MIC C. auris Fluconazole resistant [2, 7] | MIC P. aeruginosa (P. aeruginosa ATCC 9721; [6]) | MIC S. aureus Methicillin resistant ([3]; second value of cell S. aureus/Methicillin resistant, broth dilution in MHB, 10^6 CFU/ml, peptide 1,082 to 2 μM, triplicate on 3 independent days) | MIC E. faecalis (E. faecalis ATCC 19433; [6]) | MIC S. pneumoniae [4, 6] | MIC E. faecium (E. faecium; 1 h) | Concentration easily solubilised in pure water [5] | MIC E. coli (E. coli NCTC 10418; NCTC 10418, 1 h) | MIC C. albicans ([1]; ATCC 10231, 1 h) | MIC C. auris Fluconazole resistant ([2]; DSM 21092, 1 h) | MIC P. aeruginosa (P. aeruginosa ATCC 9721; ATCC 9721, 1 h) | MIC S. aureus (S. aureus ATCC 25923) | MIC S. aureus Methicillin resistant ([3]; ATCC BAA-1756, 1 h) | MIC E. faecalis (E. faecalis ATCC 19433; ATCC 19433, 1 h) | MIC S. pneumoniae ([4]; ATCC 49619, 1 h)
CC[C@H](C)[C@H](N)C(=O)N[C@@H](CC(C)C)C(=O)N1CCC[C@H]1C(=O)N[C@@H](Cc1c[nH]c2ccccc12)C(=O)N[C@@H](CCCCN)C(=O)N[C@@H](Cc1c[nH]c2ccccc12)C(=O)N1CCC[C@H]1C(=O)N[C@@H](Cc1c[nH]c2ccccc12)C(=O)N[C@@H](Cc1c[nH]c2ccccc12)C(=O)N1CCC[C@H]1C(=O)N[C@@H](Cc1c[nH]c2ccccc12)C(=O)N[C@@H](CCCNC(=N)N)C(=O)N[C@@H](CCCNC(=N)N)C(N)=O [Indolicidin, reference compound] | 33 µM (≈ 62.9 µg/mL) | 16 µM (≈ 30.5 µg/mL) | 4 µM (≈ 7.63 µg/mL) | 16 µM (≈ 30.5 µg/mL) | 33 µM (≈ 62.9 µg/mL) | 33 µM (≈ 62.9 µg/mL) | 33 µM (≈ 62.9 µg/mL) | 16 µM (≈ 30.5 µg/mL) |  |  |  |  |  |  |  |  |  | 
N=C(N)NCCC[C@H](NC(=O)[C@H](CCCNC(=N)N)NC(=O)[C@H](Cc1c[nH]c2ccccc12)NC(=O)[C@H](Cc1c[nH]c2ccccc12)NC(=O)OCC1c2ccccc2-c2ccccc21)C(N)=O [Priscilicidin, Fmoc-WWRR-NH2] (Fmoc-WWRR-NH2) |  |  |  |  |  |  |  |  | 34 µM (≈ 31.4 µg/mL) | at least 10 % w/w | 68 µM (≈ 62.8 µg/mL) | 8 µM (≈ 7.39 µg/mL) | 17 µM (≈ 15.7 µg/mL) | 68 µM (≈ 62.8 µg/mL) | 17 µM (≈ 15.7 µg/mL) | 34 µM (≈ 31.4 µg/mL) | 68 µM (≈ 62.8 µg/mL) | 17 µM (≈ 15.7 µg/mL)
WPWRR-NH2 [Indolicidin C-terminus, WPWRR-NH2, reference compound] |  |  |  |  |  |  |  |  |  |  | 313 µM | 78 µM | 313 µM | 313 µM |  |  |  | 
